In BigSolDB 2.1:

CC1(C)S[C@@H]2[C@H](NC(=O)[C@H](NC(=O)N3CCNC3=O)c3ccccc3)C(=O)N2[C@H]1C(=O)O
solubility (mole fraction)
Conditions	278.15 K	283.15 K	288.15 K	293.15 K	298.15 K	303.15 K	308.15 K	313.15 K	318.15 K	323.15 K
in THF	0.00106	0.00115	0.00131	0.00149	0.00164	0.00178	0.00199	0.00218	0.00243	0.00276
in acetone	0.000492	0.000572	0.000667	0.000823	0.000919	0.00112	0.00133	0.00155	0.00192	0.00223
in acetonitrile	0.000491	0.000551	0.000643	0.000757	0.000836	0.000934	0.00108	0.00122	0.00137	0.00156
in ethanol	0.000687	0.000805	0.000954	0.00113	0.00131	0.00165	0.00197	0.00245	0.00296	0.00368
in ethyl acetate	0.000219	0.000243	0.000287	0.000311	0.000353	0.000411	0.000462	0.000528	0.000613	0.000688
in isopropanol	9.02e-05	0.000111	0.000132	0.000162	0.000196	0.00024	0.000289	0.000376	0.000456	0.000557
in isopropyl acetate	6.88e-05	7.89e-05	9.25e-05	0.000102	0.000116	0.00013	0.000148	0.00017	0.000192	0.000219
in methanol	0.000281	0.00033	0.000403	0.000478	0.000602	0.000728	0.000948	0.00115	0.00142	0.00178
in methyl acetate	0.00027	0.000313	0.000372	0.000463	0.000565	0.000651	0.000758	0.000921	0.00107	0.0013
